Results as given in article PMC11350846, “Synthesis of Second-Generation Analogs of Temporin-SHa Peptide Having Broad-Spectrum Antibacterial and Anticancer Effects” (Antibiotics, 2024).
Where a SMILES comes first, the peptide text is derived from it. [ ]: non-standard residue; d: D form.

Tests used:
E. cloacae (DSM 30054) = details: E. cloacae (DSM 30054), 18-24 h
Procedure: (§1) The peptides were assessed for their antibacterial activity by determining the minimum inhibitory concentration (MIC) using the two-fold serial dilution method following the National Committee of Clinical Laboratory Standards, as previously described. Gram-negative (Acinetobacter baumannii (DSM 30007), Escherichia coli (ATCC 8739), Enterobacter cloacae (DSM 30054), Helicobacter pylori (ATCC 43504), Klebsiella pneumoniae (DSM 26371), Pseudomonas aeruginosa (ATCC 9027)) and Gram-positive bacteria (Bacillus subtilis (ATCC 6633), Enterococcus faecalis (DSM 2570), Enterococcus faecium (DSM 20477), Staphylococcus aureus (ATCC 6538)) were used for the antibacterial activity assays. In brief, 3 mL of Mueller–Hinton (MH) broth was inoculated with single clusters of the various bacterial strains and incubated overnight at 37 °C with agitation at 200 rpm. The next day, the bacterial solution was diluted with sterile MH by 1/100 and further incubated at 37 °C and 200 rpm until the bacteria reached the log phase growth (OD600nm around 0.6). The bacterial suspension was then adjusted to a density of approximately 10^5 bacteria/mL, and 100 μL was added per well of 96-well microplates (Greiner BioOne, Les Ulis, France), followed by exposure to increasing concentrations of peptides (from 0 to 100 µM, 1:2 dilution). Plates were then incubated at 37 °C for 18-24 h under either aerobic (for A. baumannii, E. cloacae, E. coli, P. aeruginosa, B. subtilis, and S. aureus) or micro-aerobic conditions generated using GasPak units (for E. faecalis, E. faecium and, H. pylori). […] The optical density (OD) at 600nm was measured using a microplate reader (Biotek, Synergy Mx, Les Ulis, France) after the final incubation. All experiments were performed in triplicate (n = 3).

A. baumannii (DSM 30007) = details: A. baumannii (DSM 30007), 18-24 h
Procedure: as §1

H. pylori (ATCC 43504) = details: micro-aerobic, 18-24 h
Procedure: as §1

B. subtilis (ATCC 6633) = details: 18-24 h
Procedure: as §1

[1] = tested on: P. aeruginosa (ATCC 9027); details: P. aeruginosa (ATCC 9027), 18-24 h
Procedure: as §1

E. faecalis (DSM 2570) = details: E. faecalis (DSM 2570), micro-aerobic, 18-24 h
Procedure: as §1

K. pneumonia (DSM 26371) = details: K. pneumonia (DSM 26371), 18-24 h
Procedure: as §1

E. faecium (DSM 20477) = details: E. faecium (DSM 20477), micro-aerobic, 18-24 h
Procedure: as §1

E. coli (ATCC 8739) = details: E. coli (ATCC 8739), 18-24 h
Procedure: as §1

S. aureus (ATCC 6538) = details: 18-24 h
Procedure: as §1

[2] = tested on: Normal Lung Epithelium (BEAS-2B); format: cell-based, human; details: BEAS-2B normal cells, 48 h; read-out: 50% inhibitory concentrations (IC50), cell proliferation
Procedure: (§2) The antiproliferative activity of the peptides was evaluated, as previously described using human cancer cell lines (A549 (lung), A2780 (ovary), HepG-2 (liver), MCF-7 (breast), MiaPaCa-2 (pancreas), MNT-1 (skin), and PC-3 (prostate)) and normal human lung fibroblasts (IMR-90) or epithelial cells (BEAS-2B). The cells were cultured in DMEM supplemented with 10% FBS, 1% L-glutamine, and 1% antibiotics at 37 °C in a 5% CO2 incubator. For the antiproliferative assay, cells were seeded in 96-well plates at approximately 3000 cells/well. Twenty-four hours later, cells were treated with increasing concentrations of peptides (1:2 serial dilution from 100 µM to 0 µM) for 48 h. After treatment, the number of viable cells was determined using a resazurin-based assay, and the fluorescence intensity was measured with a microplate reader (Ex 530 nm/Em 590 nm). The IC50 values of the peptides (i.e., the concentrations causing 50% inhibition of cell proliferation) were determined using GraphPad® Prism 7 software. The experiments were performed in triplicate (n = 3). The cytotoxicity of the peptides was also evaluated using confluent/no-dividing cells, as previously described. Briefly, human cells were seeded onto 96-well plates at 20,000 cells/well. When they reached 80–90% confluence (after 24–48 h), cells were treated with escalating concentrations of peptides. After 48h incubation, cell viability was measured using a resazurin assay and CC50 (i.e., the concentrations causing 50% inhibition of cell viability) and determined using GraphPad® Prism 7 software. The experiments were performed in triplicate (n = 3).

[3] = tested on: Normal Lung Fibroblast (IMR-90); format: cell-based, human; details: IMR-90 normal cells, 48 h; read-out: 50% inhibitory concentrations (IC50), cell proliferation
Procedure: as §2

Liver Cancer (HepG-2) = format: cell-based, human; details: HepG-2, 48 h; read-out: 50% inhibitory concentrations (IC50), cell proliferation
Procedure: as §2

Ovarian Cancer (A2780) = format: cell-based, human; details: A2780, 48 h; read-out: 50% inhibitory concentrations (IC50), cell proliferation
Procedure: as §2

Prostate Cancer (PC-3) = format: cell-based, human; details: PC-3, 48 h; read-out: 50% inhibitory concentrations (IC50), cell proliferation
Procedure: as §2

Breast Cancer (MCF-7) = format: cell-based, human; details: MCF-7, 48 h; read-out: 50% inhibitory concentrations (IC50), cell proliferation
Procedure: as §2

Skin Cancer (MNT-1) = format: cell-based, human; details: MNT-1, 48 h; read-out: 50% inhibitory concentrations (IC50), cell proliferation
Procedure: as §2

Lung Cancer (A549) = format: cell-based, human; details: A549, 48 h; read-out: 50% inhibitory concentrations (IC50), cell proliferation
Procedure: as §2

[4] = tested on: Pancreatic Cancer (MiaPaCa-2); format: cell-based, human; details: MiaPaCa-2, 48 h; read-out: 50% inhibitory concentrations (IC50), cell proliferation
Procedure: as §2

`CC[C@H](C)[C@H](NC(=O)CNC(=O)[C@H](CO)NC(=O)[C@H](CC(C)C)NC(=O)[C@@H](N)Cc1ccccc1)C(=O)N[C@H](C(=O)NCC(=O)N[C@@H](CCSC)C(=O)N[C@@H](CC(C)C)C(=O)NCC(=O)N[C@@H](CCCCN)C(=O)N[C@@H](CC(C)C)C(=O)N[C@@H](Cc1ccccc1)C(N)=O)C(C)C` [Temporin-SHa (1), H-Phe^1-Leu^2-Ser^3-Gly^4-IIe^5-Val^6-Gly^7-Met^8-Leu^9-Gly^10-Lys^11-Leu^12-Phe^13-NH2, reference compound] (H-FLSGIVGMLGKLF-NH2) was tested, and the “minimum inhibitory concentration (MIC)” value (E. cloacae (DSM 30054)) was 50 µM, the “minimum inhibitory concentration (MIC)” value (A. baumannii (DSM 30007)) was 6.25 µM and the “minimum inhibitory concentration (MIC)” value (H. pylori (ATCC 43504)) was 3.12 µM. The “minimum inhibitory concentration (MIC)” value (B. subtilis (ATCC 6633)) was 1.56 µM, the “minimum inhibitory concentration (MIC)” value [1] was 50 µM and the “minimum inhibitory concentration (MIC)” value (E. faecalis (DSM 2570)) was 12.5 µM. For the same molecule, the “minimum inhibitory concentration (MIC)” value (K. pneumonia (DSM 26371)) was 50 µM, the “minimum inhibitory concentration (MIC)” value (E. faecium (DSM 20477)) was 6.25 µM and the “minimum inhibitory concentration (MIC)” value (E. coli (ATCC 8739)) was 50 µM. The “minimum inhibitory concentration (MIC)” value (S. aureus (ATCC 6538)) was 3.12 µM, the IC50 [2] was over 100 µM and the IC50 [3] was over 100 µM. The IC50 (Liver Cancer (HepG-2)) was over 100 µM, the IC50 (Ovarian Cancer (A2780)) was over 100 µM and the IC50 (Prostate Cancer (PC-3)) was over 100 µM. The IC50 (Breast Cancer (MCF-7)) was 26.9 ± 8.2 µM, the IC50 (Skin Cancer (MNT-1)) was over 100 µM and the IC50 (Lung Cancer (A549)) was over 100 µM. The IC50 [4] was over 100 µM.
In the case of `CC[C@H](C)[C@H](NC(=O)CNC(=O)[C@H](CO)NC(=O)[C@H](CC(C)C)NC(=O)[C@@H](N)Cc1ccccc1)C(=O)N[C@H](C(=O)NCC(=O)N[C@@H](CCSC)C(=O)N[C@@H](CC(C)C)C(=O)N[C@H](C)C(=O)N[C@@H](CCCCN)C(=O)N[C@@H](CC(C)C)C(=O)N[C@@H](Cc1ccccc1)C(N)=O)C(C)C` [[G10a]-SHa (2), H-Phe^1-Leu^2-Ser^3-Gly^4-IIe^5-Val^6-Gly^7-Met^8-Leu^9-D-Ala^10-Lys^11-Leu^12-Phe^13-NH2] (H-FLSGIVGML[dA]KLF-NH2), the “minimum inhibitory concentration (MIC)” value (E. cloacae (DSM 30054)) is reported as over 100 µM, the “minimum inhibitory concentration (MIC)” value (A. baumannii (DSM 30007)) is reported as 12.5 µM and the “minimum inhibitory concentration (MIC)” value (H. pylori (ATCC 43504)) is reported as 3.12 µM. For the same molecule, the “minimum inhibitory concentration (MIC)” value (B. subtilis (ATCC 6633)) was 3.12 µM, the “minimum inhibitory concentration (MIC)” value [1] was over 100 µM and the “minimum inhibitory concentration (MIC)” value (E. faecalis (DSM 2570)) was 25 µM. For the same molecule, the “minimum inhibitory concentration (MIC)” value (K. pneumonia (DSM 26371)) was 100 µM, the “minimum inhibitory concentration (MIC)” value (E. faecium (DSM 20477)) was over 100 µM and the “minimum inhibitory concentration (MIC)” value (E. coli (ATCC 8739)) was 100 µM. The “minimum inhibitory concentration (MIC)” value (S. aureus (ATCC 6538)) was 3.12 µM, the IC50 [2] was 22.6 ± 0.7 µM and the IC50 [3] was 33 ± 3.1 µM. For the same molecule, the IC50 (Liver Cancer (HepG-2)) was 37.2 ± 5 µM, the IC50 (Ovarian Cancer (A2780)) was 13.4 ± 0.7 µM and the IC50 (Prostate Cancer (PC-3)) was 13.1 ± 2.4 µM. It also gave an IC50 (Breast Cancer (MCF-7)) of 18.3 ± 8 µM, an IC50 (Skin Cancer (MNT-1)) of 14 ± 0.8 µM and an IC50 (Lung Cancer (A549)) of 12.1 ± 0.4 µM. The IC50 [4] was 23.1 ± 4.3 µM.
